In patent US8946268B2, “Modulators of HEC1 activity and methods therefor” (Taivex Therapeutics, Inc., priority 2010, dated 2015):

Assays:
Assay type in all cases: cell-based
Hela = experiment: Antiproliferative activity (MTS assay), Hela; details: Homo sapiens, HeLa, 96 h, Hela cells
Protocol: (§1) Antiproliferative effect is expressed as IC50 values in microMolar final concentration.
(§2) Cells were grown at 37° C. in a humidified atmosphere with 5% CO2 and 95% air. Cells were seeded in 96 well tissue culture plates.
(§3) Compound treatment started after overnight incubation of cells (TO). […] Compound was added to the plate in triplicate wells, and the plates were then incubated for 96 hours. DMSO (compounds diluents) was also included and added to the plate in control wells. Cell viability was then determined by MTS assay using CellTiter 96® AQueous non-radioactive cell proliferation assay system (Promega). A plate reader (Molecular Devices, Vmax) was used to read the optical densities, and the results were used to deduce concentration-response curves. […] The results were analyzed using linear regression software (GraphPad Prism 5; GraphPad Software Inc.).
(§4) The GI50 values (growth inhibitory activity) were determined to emphasize on the correction for the cell count at time zero; thus, the % inhibition of test drug were: [1−(T−T0)/(C−T0)]×100; and these value were used to plot the concentration-response curves, and then analyzed with linear regression software (GraphPad Prism 5).

K562 = experiment: Antiproliferative activity (MTS assay), K562; details: Homo sapiens, K562, 96 h, K562 cells
Protocol: as §1, §2, §3, §4

MDA-MB-468 = experiment: Antiproliferative activity (MTS assay), MDA-MB-468; details: Homo sapiens, MDA-MB-468, 96 h, MDA-MB-468 cells
Protocol: as §1, §2, §3, §4

MDA-MB-231 = experiment: Antiproliferative activity (MTS assay), MDA-MB-231; details: Homo sapiens, MDA-MB-231, 96 h, MDA-MB-231 cells
Protocol: as §1, §2, §3, §4

| IC50 (Hela) [µM] | IC50 (K562) [µM] | IC50 (MDA-MB-468) [µM] | IC50 (MDA-MB-231) [µM] | Structure (SMILES) |
| --- | --- | --- | --- | --- |
| 8.75 | 5.6 | 6.18 | 3.12 | Cc1cc(C)c(-c2csc(NC(=O)c3ccnnc3)n2)c(C)c1 [Compound 8] |
| 1.51 | 2.68 | 1.83 | 1.24 | Cc1cc(C)c(-c2csc(NC(=O)c3cncs3)n2)c(C)c1 [Compound 9] |
| > 10 | > 10 | 8.89 | 8.03 | COc1ccc(-c2nc(NC(=O)c3ccncc3)sc2C)cc1 [Compound 10] |
| > 10 | > 10 | > 10 | > 10 | COc1ccc(-c2csc(NC(=O)c3cccnc3)n2)c(OC)c1 [Compound 15] |
| > 10 | > 10 | > 10 | > 10 | COc1ccc(-c2csc(NC(=O)c3cccnc3)n2)c(F)c1 [Compound 21] |
| > 10 | > 10 | > 10 | > 10 | Cc1ccc(-c2csc(NC(=O)c3cccnc3)n2)cc1 [Compound 28] |
| > 10 | > 10 | > 10 | > 10 | Cc1ccc(-c2nc(NC(=O)c3ccc(C#N)cc3)sc2C)cc1 [Compound 30] |
| > 10 | > 10 | > 10 | > 10 | COc1cc(-c2csc(NC(=O)c3ccncc3)n2)ccc1O [Compound 34] |
| > 10 | > 10 | > 10 | > 10 | COc1cc(-c2csc(NC(=O)c3ccccn3)n2)ccc1O [Compound 36] |
| > 10 | > 10 | 3.4 | 5.68 | Cc1sc(NC(=O)c2ccc(C#N)cc2)nc1-c1ccccc1 [Compound 38] |
| > 10 | > 10 | > 10 | > 10 | COc1ccccc1CC(=O)Nc1nc(-c2ccccc2)c(C)s1 [Compound 41] |
| > 10 | > 10 | > 10 | > 10 | Cc1ccc(-c2nc(NC(=O)c3ccncc3)sc2C)cc1 [Compound 43] |
| > 10 | > 10 | 7.19 | 7.41 | Cc1cc(C)c(-c2csc(NC(=O)c3cccnc3)n2)c(C)n1 [Compound 46] |
| > 10 | > 10 | > 10 | > 10 | COc1cc(-c2csc(NC(=O)c3ccnnc3)n2)ccc1O [Compound 47] |
| 0.48 | 0.62 | 0.48 | 0.43 | Cc1cc(-c2ccccc2)cc(C)c1-c1csc(NC(=O)c2ccncc2)n1 [Compound 53] |
| 0.73 | 0.76 | 0.89 | 0.59 | Cc1cc(Cl)cc(C)c1-c1csc(NC(=O)c2ccncc2)n1 [Compound 55] |

More lines, now with the values behind:

| Structure (SMILES) | IC50 (Hela) [µM] | IC50 (K562) [µM] | IC50 (MDA-MB-468) [µM] | IC50 (MDA-MB-231) [µM] |
| --- | --- | --- | --- | --- |
| Cc1sc(NC(=O)c2ccncc2)nc1-c1ccccc1 [Compound 2] | > 10 | > 10 | 8.15 | > 10 |
| Cc1sc(NC(=O)c2cccnc2)nc1-c1ccccc1 [Compound 3] | > 10 | > 10 | > 10 | > 10 |
| Cc1cc(C)c(-c2csc(NC(=O)c3ccncn3)n2)c(C)c1 [Compound 5] | > 10 | 5.74 | 4.57 | 7.37 |
| Cc1ccc(-c2csc(NC(=O)c3ccncc3)n2)cc1 [Compound 6] | 1.05 | 1.48 | 1.14 | 0.67 |
| Cc1ccc(-c2csc(NC(=O)c3ccc(C#N)cc3)n2)cc1 [Compound 7] | > 10 | > 10 | > 10 | > 10 |
| COc1cc(OC)c(-c2csc(NC(=O)c3ccncc3)n2)c(OC)c1 [Compound 11] | > 10 | > 10 | > 10 | > 10 |
| COc1ccc(-c2csc(NC(=O)c3ccncc3)n2)cc1 [Compound 12] | > 10 | 3.91 | 2.88 | 1.41 |
| COc1ccc(-c2csc(NC(=O)c3ccncc3)n2)c(OC)c1 [Compound 13] | > 10 | > 10 | > 10 | > 10 |
| COc1ccc(-c2nc(NC(=O)c3cccnc3)sc2C)cc1 [Compound 14] | > 10 | > 10 | > 10 | > 10 |
| COc1ccc(-c2nc(NC(=O)c3ccccn3)sc2C)cc1 [Compound 16] | > 10 | > 10 | > 10 | > 10 |
| COc1ccc(-c2csc(NC(=O)c3ccccn3)n2)cc1 [Compound 17] | > 10 | > 10 | > 10 | > 10 |
| COc1ccc(-c2csc(NC(=O)c3ccccn3)n2)c(OC)c1 [Compound 18] | > 10 | > 10 | > 10 | > 10 |
| Cc1sc(NC(=O)c2ccccn2)nc1-c1ccccc1 [Compound 19] | > 10 | > 10 | 6.85 | 6.75 |
| COc1cc(-c2csc(NC(=O)c3cccnc3)n2)cc(OC)c1OC [Compound 20] | > 10 | > 10 | > 10 | > 10 |
| COc1ccc(CCC(=O)Nc2nc(-c3ccc(OC)cc3F)cs2)cc1 [Compound 22] | > 10 | > 10 | 4.19 | > 10 |
| COc1ccc(-c2csc(NC(=O)CCc3ccccc3)n2)c(F)c1 [Compound 23] | > 10 | > 10 | 7.12 | > 10 |
| COc1ccc(-c2csc(NC(=O)c3ccccn3)n2)c(F)c1 [Compound 24] | > 10 | > 10 | > 10 | > 10 |
| COc1cc(-c2csc(NC(=O)c3ccccn3)n2)cc(OC)c1OC [Compound 25] | > 10 | > 10 | > 10 | > 10 |

| Structure (SMILES) | IC50 (Hela) [µM] | IC50 (K562) [µM] | IC50 (MDA-MB-468) [µM] | IC50 (MDA-MB-231) [µM] |
| --- | --- | --- | --- | --- |
| COc1ccc(-c2csc(NC(=O)c3ccncc3)n2)c(F)c1 [Compound 26] | > 10 | 2.43 | 2.25 | 6.85 |
| COc1cc(-c2csc(NC(=O)c3ccncc3)n2)cc(OC)c1OC [Compound 27] | > 10 | > 10 | > 10 | > 10 |
| Cc1ccc(-c2csc(NC(=O)c3ccccn3)n2)cc1 [Compound 29] | > 10 | > 10 | > 10 | > 10 |
| Cc1ccc(-c2nc(NC(=O)c3cccnc3)sc2C)cc1 [Compound 31] | > 10 | > 10 | > 10 | > 10 |
| Cc1ccc(-c2nc(NC(=O)c3ccccn3)sc2C)cc1 [Compound 32] | > 10 | > 10 | > 10 | > 10 |
| Cc1cc(C)c(-c2csc(NC(=O)c3ccsc3)n2)c(C)c1 [Compound 33] | > 10 | > 10 | 0.79 | > 10 |
| COc1cc(-c2csc(NC(=O)c3cccnc3)n2)ccc1O [Compound 35] | > 10 | > 10 | > 10 | > 10 |
| COc1ccc(-c2csc(NC(=O)c3cccnc3)n2)cc1 [Compound 37] | > 10 | > 10 | > 10 | > 10 |
| COc1ccc(-c2nc(NC(=O)c3ccc(C#N)cc3)sc2C)cc1 [Compound 39] | > 10 | > 10 | > 10 | > 10 |
| COc1ccc(-c2csc(NC(=O)Cc3ccccc3OC)n2)c(OC)c1 [Compound 40] | > 10 | > 10 | > 10 | > 10 |
| Cc1cc(C)c(-c2csc(NC(=O)c3ccncc3)n2)c(C)n1 [Compound 44] | > 10 | 1.96 | 1.01 | 1.24 |
| Cc1cc(C)c(-c2csc(NC(=O)c3ccccn3)n2)c(C)n1 [Compound 45] | > 10 | > 10 | 7.68 | > 10 |
| COc1cc(-c2csc(NC(=O)c3ccncn3)n2)ccc1O [Compound 48] | > 10 | > 10 | > 10 | > 10 |
| COc1cc(-c2csc(NC(=O)c3ccsc3)n2)ccc1O [Compound 49] | > 10 | > 10 | > 10 | > 10 |
| COc1cc(-c2csc(NC(=O)c3cncs3)n2)ccc1O [Compound 50] | > 10 | > 10 | > 10 | > 10 |
| COc1cc(-c2csc(NC(=O)c3ccoc3)n2)ccc1O [Compound 51] | > 10 | > 10 | > 10 | > 10 |
| COc1ccc(-c2csc(NC(=O)c3ccnc(Cl)c3)n2)cc1 [Compound 54] | 5.92 | 6.65 | 6.95 | 4.56 |
| N#Cc1ccc(C(=O)Nc2nc(-c3ccc(O)cc3)cs2)cc1 [Compound 56] | > 10 | > 10 | > 10 | > 10 |
